One may read the melting point as the temperature, or range, at which the solid turns liquid. In turn, `O=c1nc(-c2ccc(NCc3ccccc3)nc2)sc2ccccc12` [Example 32, 2-[6-(Benzylamino)-3-pyridyl]-4H-1,3-benzothiazine-4-one] yielded a melting point of 194.3 to 196.2 °C. As for `O=c1nc(-c2ccc(N3CCCC3)nc2)sc2ccccc12` [Example 33, 2-[6-(1-Pyrrolidinyl)-3-pyridyl]-4H-1,3-benzothiazine-4-one], the figure is 221 to 223.1 °C; as for `O=c1nc(-c2ccc(N3CCCCC3)nc2)sc2ccccc12` [Example 34, 2-[6-(1-Piperidino)-3-pyridyl]-4H-1,3-benzothiazine-4-one], 191.2 to 191.7 °C.

Regarding `O=c1nc(-c2ccc(N3CCOCC3)nc2)sc2ccccc12` [Example 35, 2-[6-(4-Morpholino)-3-pyridyl]-4H-1,3-benzothiazine-4-one], the melting point lay within 232.6 to 234.4 °C. As for `O=c1nc(-c2ccc(Sc3ccc(Cl)cc3)nc2)sc2ccccc12` [Example 36, 2-{6-[(4-Chlorophenyl)thio]-3-pyridyl}-4H-1,3-benzothiazine-4-one], the figure is 221.5 to 222 °C; as for `O=c1nc(-c2cccc(Oc3ccccc3)n2)sc2ccccc12` [Example 41, 2-(6-Phenoxy-2-pyridyl)-4H-1,3-benzothiazine-4-one], 160.8 to 161.3 °C. As for `O=c1nc(-c2cccc(N3CCCCC3)n2)sc2ccccc12` [Example 42, 2-[6-(1-Piperidyl)-2-pyridyl]-4H-1,3-benzothiazine-4-one], the figure is 178.7 °C (dec.); as for `C[S+]([O-])c1cccc(-c2nc(=O)c3ccccc3s2)n1` (centres unmarked) [Example 44, 2-(6-Methylsulfinyl-2-pyridyl)-4H-1,3-benzothiazine-4-one], 256.5 °C (dec.). Then `CS(=O)(=O)c1cccc(-c2nc(=O)c3ccccc3s2)n1` [Example 45, 2-(6-Methylsulfonyl-2-pyridyl)-4H-1,3-benzothiazine-4-one], with 238.2 to 239.5 °C (dec.). The molecule `Cc1ccc(Sc2cccc(-c3nc(=O)c4ccccc4s3)n2)cc1` [Example 46, 2-{6-[(4-methylphenyl)thio]-2-pyridyl}-4H-1,3-benzothiazine-4-one] displayed a melting point of 176.9 to 178.4 °C. As for `CCCSc1cccc(-c2nc(=O)c3ccccc3s2)n1` [Example 59, 2-(6-Propylthio-2-pyridyl)-4H-1,3-benzothiazine-4-one], the figure is 124.5 to 125.1 °C. Then `O=c1nc(-c2cccc(N3CCN(c4ccccc4)CC3)n2)sc2ccccc12` [Example 62, 2-[6-(4-Phenyl-1-piperazinyl)-2-pyridyl]-4H-1,3-benzothiazine-4-one], with 245.8 °C (dec.); and `CC(C)(C)OC(=O)CCOCCCc1cccc(-c2nc(=O)c3ccccc3s2)n1` [Example 66, tert-Butyl 3-{3-[6-(4-oxo-4H-1,3-benzothiazin-2-yl)-2-pyridyl]propoxy}propanoate], with 71 to 71.9 °C; and `O=c1nc(-c2ccnc(OCc3ccccc3)c2)sc2ccccc12` [Example 69, 2-(2-Benzyloxy-4-pyridyl)-4H-1,3-benzothiazine-4-one], with 116 to 116.5 °C. As for `CN(Cc1ccccc1)c1cc(-c2nc(=O)c3ccccc3s2)ccn1` [Example 71, 2-[2-(N-Benzyl-N-methylamino)-4-pyridyl]-4H-1,3-benzothiazine-4-one], the figure is 145.9 to 146.6 °C; as for `CCCCCCNc1cc(-c2nc(=O)c3ccccc3s2)ccn1` [Example 72, 2-[2-(Hexylamino)-4-pyridyl]-4H-1,3-benzothiazine-4-one], 133.8 to 134.6 °C; as for `O=c1nc(-c2ccnc(N3CCN(c4ccc(F)cc4)CC3)c2)sc2ccccc12` [Example 74, 2-{2-[4-(4-Fluorophenyl)-1-piperazinyl]-4-pyridyl}-4H-1,3-benzothiazine-4-one], 233 to 233.6 °C. `O=c1nc(-c2ccnc(-c3ccccc3)c2)sc2ccccc12` [Example 75, 2-(2-Phenyl-4-pyridyl)-4H-1,3-benzothiazine-4-one] yielded a melting point of 162.7 to 163 °C. For the molecule `O=c1nc(-c2ccnc(-c3cccs3)c2)sc2ccccc12` [Example 75, 2-[2-(2-Thienyl)-4-pyridyl]-4H-1,3-benzothiazine-4-one], the melting point lay within 160.4 to 161.1 °C. As for `CC(C)(C)OC(=O)CCc1cccc(-c2nc(=O)c3ccccc3s2)n1` [Example 78, tert-Butyl 3-[6-(4-oxo-4H-1,3-benzothiazin-2-yl)-2-pyridyl]propanoate], the figure is 165.8 to 166 °C.

On to `O=c1nc(-c2ccccn2)sc2ccc(O)cc12` [Example 84, 6-Hydroxy-2-(2-pyridyl)-4H-1,3-benzothiazine-4-one], for which the melting point fell in the range of 313.3 to 315 °C. Then `COC(CCCNc1ccc(-c2nc(=O)c3ccccc3s2)cn1)OC` [Example 86, 2-[6-[(4,4-Dimethoxybutyl)amino]-3-pyridyl]-4H-1,3-benzothiazine-4-one], with 157.2 to 158.5 °C; and `Cc1cc(C)c2sc(-c3cccc(CCCOCCC(=O)OC(C)(C)C)n3)nc(=O)c2c1` [Example 87], with 105.3 to 107.3 °C. Molecule `Cc1cc(C)c2sc(-c3cccc(CCCOCCC(=O)O)n3)nc(=O)c2c1` [Example 88] had a melting point of 156.5 to 157.1 °C.

Molecule `CSc1ccc(Oc2ccc(-c3nc(=O)c4ccccc4s3)cn2)cc1` [Example 89] registered a melting point of 140.5 to 140.6 °C. As for `Cc1ccc(Sc2ccc(-c3nc(=O)c4ccccc4s3)cn2)cc1` [Example 90, 2-[2-(4-Methyl)phenylthio-3-pyridyl]-4H-1,3-benzothiazine-4-one], the figure is 172.6 to 172.8 °C; as for `CCOc1ccc(-c2nc(=O)c3ccccc3s2)cn1` [Example 91, 2-(6-Ethoxy-3-pyridyl)-4H-1,3-benzothiazine-4-one], 152.3 to 156.2 °C.

Molecule `CC(C)CCSc1ccc(-c2nc(=O)c3ccccc3s2)cn1` [Example 92] yielded a melting point of 92.8 to 93.1 °C. As for `CC(C)Oc1ccc(-c2nc(=O)c3ccccc3s2)cn1` [Example 93, 2-[6-Isopropoxy-3-pyridyl]-4H-1,3-benzothiazine-4-one], the figure is 109.7 to 110.4 °C. The molecule `CCOCCOc1ccc(-c2nc(=O)c3ccccc3s2)cn1` [Example 94, 2-[6-(2-Ethoxyethoxy)-3-pyridyl]-4H-1,3-benzothiazine-4-one] registered a melting point of 93.6 to 94.9 °C. Then `O=C1c2ccccc2C(=O)N1CCOc1ccc(-c2nc(=O)c3ccccc3s2)cn1` [Example 95], with 212.4 to 212.6 °C. Then `CCOC(=O)CCCCCOc1ccc(-c2nc(=O)c3ccccc3s2)cn1` [Example 96, Ethyl 6-{[5-(4-oxo-4H-1,3-benzothiazin-2-yl)-2-pyridyl]oxy}hexanoate], with 73.6 to 73.9 °C. Then `CC(C)(C)OC(=O)CCOCCCc1ccnc(-c2nc(=O)c3ccccc3s2)c1` [Example 101, tert-Butyl 3-[3-[2-(4-oxo-4H-1,3-benzothiazin-2-yl)-4-pyridyl]propoxy]propanoate], with 81.1 to 82.2 °C; and `CN(C(=O)OC(C)(C)C)c1cccc(-c2nc(=O)c3ccccc3s2)n1` [Example 108, tert-Butyl methyl[6-(4-oxo-4H-1,3-benzothiazin-2-yl)-2-pyridyl]carbamate], with 195.6 to 196.3 °C; and `CNc1cccc(-c2nc(=O)c3ccccc3s2)n1` [Example 109, 2-(6-Methylamino-2-pyridyl)-4H-1,3-benzothiazine-4-one], with 206.9 to 208 °C. Regarding `CC(=O)N(C)c1cccc(-c2nc(=O)c3ccccc3s2)n1` [Example 110, N-Methyl-N-[6-(4-oxo-4H-1,3-benzothiazin-2-yl)-2-pyridyl]acetamide], the melting point was 218.3 to 220.3 °C.

The molecule `CCC(=O)N(C)c1cccc(-c2nc(=O)c3ccccc3s2)n1` [Example 114, N-Methyl-N-[6-(4-oxo-4H-1,3-benzothiazin-2-yl)-2-pyridyl]propanamide] displayed a melting point of 200.6 to 201.2 °C.

Molecule `CCCCOc1ccc2sc(-c3ccccn3)nc(=O)c2c1` [Example 116, 6-Butoxy-2-(2-pyridyl)-4H-1,3-benzothiazine-4-one] showed a melting point of 160.9 to 161.8 °C. `CC(C)COc1ccc2sc(-c3ccccn3)nc(=O)c2c1` [Example 117, 6-Isobutoxy-2-(2-pyridyl)-4H-1,3-benzothiazine-4-one] gave a melting point of 135.5 to 136.5 °C.

Take `O=c1nc(-c2ccccn2)sc2ccc(OCCCO)cc12` [Example 118, 6-(3-Hydroxypropoxy)-2-(2-pyridyl)-4H-1,3-benzothiazine-4-one]: the melting point fell in the range of 196.6 to 197.7 °C. Then `O=c1nc(-c2ccccn2)sc2ccc(OCCCCCCO)cc12` [Example 119, 6-(6-Hydroxyhexyloxy)-2-(2-pyridyl)-4H-1,3-benzothiazine-4-one], with 135.6 to 137 °C. Then `O=c1nc(-c2ccccn2)sc2ccc(OCCCc3ccccc3)cc12` [Example 120, 6-(3-Phenylpropoxy)-2-(2-pyridyl)-4H-1,3-benzothiazine-4-one], with 170 to 170.3 °C; and `O=c1nc(-c2ccccn2)sc2ccc(OCc3ccccc3)cc12` [Example 121, 6-(Benzyloxy)-2-(2-pyridyl)-4H-1,3-benzothiazine-4-one], with 198 to 198.8 °C; and `CC(C)(C)OC(=O)COc1ccc2sc(-c3ccccn3)nc(=O)c2c1` [Example 122, tert-Butyl 2-[[4-oxo-2-(2-pyridyl)-4H-1,3-benzothiazin-6-yl]oxy]acetate], with 183 to 184.1 °C. Regarding `O=C(O)COc1ccc2sc(-c3ccccn3)nc(=O)c2c1` [Example 123, 2-[[4-Oxo-2-(2-pyridyl)-4H-1,3-benzothiazin-6-yl]oxy]acetic acid], the melting point was 250 °C (dec.). `CC(C)(C)OC(=O)CCCCCOc1ccc2sc(-c3ccccn3)nc(=O)c2c1` [Example 124, tert-Butyl 6-[[4-oxo-2-(2-pyridyl)-4H-1,3-benzothiazin-6-yl]oxy]hexanoate] registered a melting point of 101.2 to 102.4 °C. As for `O=C(O)CCCCCOc1ccc2sc(-c3ccccn3)nc(=O)c2c1` [Example 125, 6-[[4-Oxo-2-(2-pyridyl)-4H-1,3-benzothiazin-6-yl]oxy]hexanoic acid], the figure is 205.4 to 206.3 °C.

The record behind these values is patent US7767665B2, “1,3-benzothiazinone derivatives and use thereof” (Takeda Pharmaceutical Company Limited, priority 2001, dated 2010).
